# Experimental data published in patent EP0052437A1, “Antibacterial compounds, processes for their preparation and compositions containing them” (BEECHAM GROUP PLC, priority 1980, dated 1982).
# Columns and labels:
# Type in all cases: cell-based
# [1] = test system: M. suipneumoniae JF 435; experiment: Anti-mycoplasmal in vitro MIC; details: Mesomycoplasma hyopneumoniae, JF435, 144 h, Friis broth solidified with 0.9% agarose, 6 days incubation at 37°C
# [2] = test system: M. hyorhinis ATCC 25021; experiment: Anti-mycoplasmal in vitro MIC; details: Mesomycoplasma hyorhinis, ATCC25021, 144 h, Friis broth solidified with 0.9% agarose, 6 days incubation at 37°C
# [3] = test system: Bacillus subtilis 6633; experiment: Human bacteria MIC; details: nutrient agar with 5% chocolated horse blood, 18 hours at 37°C
# Protocol: (§1) The values were determined by serial dilutions in nutrient agar with 5% chocolated horse blood after incubations for 18 hours at 37 °C.
# [4] = test system: Corynebacterium xerosis 9755; experiment: Human bacteria MIC; details: nutrient agar with 5% chocolated horse blood, 18 hours at 37°C
# Protocol: as §1
# [5] = test system: P. mirabilis 889; experiment: Human bacteria MIC; details: Proteus mirabilis, nutrient agar with 5% chocolated horse blood, 18 hours at 37°C
# Protocol: as §1
# [6] = test system: M. suipneumoniae NCTC 10110; experiment: Anti-mycoplasmal in vitro MIC; details: Mesomycoplasma hyopneumoniae, NCTC10110, 144 h, Friis broth solidified with 0.9% agarose, 6 days incubation at 37°C
# [7] = test system: M. suipneumoniae LABER; experiment: Anti-mycoplasmal in vitro MIC; details: Mesomycoplasma hyopneumoniae, 144 h, Friis broth solidified with 0.9% agarose, 6 days incubation at 37°C
# [8] = test system: M. pneumoniae ATCC 15492; experiment: Anti-mycoplasmal in vitro MIC; details: Mycoplasmoides pneumoniae, ATCC15492, 144 h, Friis broth solidified with 0.9% agarose, 6 days incubation at 37°C
# [9] = test system: M. suipneumoniae HK(2); experiment: Anti-mycoplasmal in vitro MIC; details: Mesomycoplasma hyopneumoniae, 144 h, Friis broth solidified with 0.9% agarose, 6 days incubation at 37°C
# [10] = test system: M. dispar NCTC 10125; experiment: Anti-mycoplasmal in vitro MIC; details: 144 h, Friis broth solidified with 0.9% agarose, 6 days incubation at 37°C
# [11] = test system: M. suipneumoniae MS 16; experiment: Anti-mycoplasmal in vitro MIC; details: Mesomycoplasma hyopneumoniae, MS16, 144 h, Friis broth solidified with 0.9% agarose, 6 days incubation at 37°C
# [12] = test system: M. suipneumoniae UCD 1; experiment: Anti-mycoplasmal in vitro MIC; details: Mesomycoplasma hyopneumoniae, UCD1, 144 h, Friis broth solidified with 0.9% agarose, 6 days incubation at 37°C
# [13] = test system: M. hyosynoviae ATCC 25591; experiment: Anti-mycoplasmal in vitro MIC; details: 144 h, Friis broth solidified with 0.9% agarose, 6 days incubation at 37°C
# [14] = test system: Strep. uberis SPU1; experiment: Veterinary bacteria MIC; details: Streptococcus uberis, Diagnostic Sensitivity Test Agar, 18 hours at 37°C
# Protocol: (§2) The values were determined using a two fold serial dilutions.in Diagnostic Sensitivity Test Agar with an inoculum of 10^4 organisms and incubation for 18 hours at 37°C.
# [15] = test system: Strep. agalactiae SPA1; experiment: Veterinary bacteria MIC; details: Streptococcus agalactiae, Diagnostic Sensitivity Test Agar, 18 hours at 37°C
# Protocol: as §2
# [16] = test system: Strep. dysgalactiae SPD1; experiment: Veterinary bacteria MIC; details: Streptococcus dysgalactiae, Diagnostic Sensitivity Test Agar, 18 hours at 37°C
# Protocol: as §2
# [17] = test system: Past. multocida PA2; experiment: Veterinary bacteria MIC; details: Pasteurella multocida, Diagnostic Sensitivity Test Agar, 18 hours at 37°C
# Protocol: as §2
# [18] = test system: Past. haemolytica PA5; experiment: Veterinary bacteria MIC; details: Mannheimia haemolytica, Diagnostic Sensitivity Test Agar, 18 hours at 37°C
# Protocol: as §2
# [19] = test system: Staph. aureus 152; experiment: Veterinary bacteria MIC; details: Staphylococcus aureus, Diagnostic Sensitivity Test Agar, 18 hours at 37°C
# Protocol: as §2
# [20] = test system: Corynebacterium pyogenes CY1; experiment: Veterinary bacteria MIC; details: Trueperella pyogenes, Diagnostic Sensitivity Test Agar, 18 hours at 37°C
# Protocol: as §2
# [21] = test system: Staph. aureus B4; experiment: Veterinary bacteria MIC; details: Staphylococcus aureus, Diagnostic Sensitivity Test Agar, 18 hours at 37°C
# Protocol: as §2
# [22] = test system: Strep. suis (group D) SPS11; experiment: Veterinary bacteria MIC; details: Streptococcus suis, Diagnostic Sensitivity Test Agar, 18 hours at 37°C
# Protocol: as §2
# [23] = test system: Erysipelothrix rhusiopathiae NCTC 8163; experiment: Veterinary bacteria MIC; details: NCTC8163, Diagnostic Sensitivity Test Agar, 18 hours at 37°C
# Protocol: as §2
# [24] = test system: S. typhimurium S18; experiment: Veterinary bacteria MIC; details: Salmonella enterica, Diagnostic Sensitivity Test Agar, 18 hours at 37°C
# Protocol: as §2
# [25] = test system: Past. multocida PA1; experiment: Veterinary bacteria MIC; details: Pasteurella multocida, Diagnostic Sensitivity Test Agar, 18 hours at 37°C
# Protocol: as §2
# [26] = test system: Bord. bronchiseptica BO9; experiment: Veterinary bacteria MIC; details: Bordetella bronchiseptica, Diagnostic Sensitivity Test Agar, 18 hours at 37°C
# Protocol: as §2
# [27] = test system: S. dublin S7; experiment: Veterinary bacteria MIC; details: Salmonella enterica, Diagnostic Sensitivity Test Agar, 18 hours at 37°C
# Protocol: as §2
# [28] = test system: Staph. aureus Oxford; experiment: Veterinary bacteria MIC; details: Staphylococcus aureus, Diagnostic Sensitivity Test Agar, 18 hours at 37°C
# Protocol: as §2
# [29] = test system: E. Coli NCTC 10418; experiment: Veterinary bacteria MIC; details: Escherichia coli, NCTC10418, Diagnostic Sensitivity Test Agar, 18 hours at 37°C
# Protocol: as §2
# [30] = test system: E. Coli E1; experiment: Veterinary bacteria MIC; details: Escherichia coli, Diagnostic Sensitivity Test Agar, 18 hours at 37°C
# Protocol: as §2
# [31] = test system: Bord. bronchiseptica BO8; experiment: Veterinary bacteria MIC; details: Bordetella bronchiseptica, Diagnostic Sensitivity Test Agar, 18 hours at 37°C
# Protocol: as §2
# [32] = test system: M. suipneumoniae Str. 11; experiment: Anti-mycoplasmal in vitro MIC; details: Mesomycoplasma hyopneumoniae, 144 h, Friis broth solidified with 0.9% agarose, 6 days incubation at 37°C
# [33] = test system: M. suipneumoniae NB12; experiment: Anti-mycoplasmal in vitro MIC; details: Mesomycoplasma hyopneumoniae, 144 h, Friis broth solidified with 0.9% agarose, 6 days incubation at 37°C
# [34] = test system: M. gallisepticum S6; experiment: Anti-mycoplasmal in vitro MIC; details: Mycoplasmoides gallisepticum, 144 h, Friis broth solidified with 0.9% agarose, 6 days incubation at 37°C
# [35] = test system: M. hyorhinis ATCC 23234; experiment: Anti-mycoplasmal in vitro MIC; details: Mesomycoplasma hyorhinis, ATCC23234, 144 h, Friis broth solidified with 0.9% agarose, 6 days incubation at 37°C
# [36] = test system: M. bovigenitalium ATCC 14173; experiment: Anti-mycoplasmal in vitro MIC; details: 144 h, Friis broth solidified with 0.9% agarose, 6 days incubation at 37°C
compound,measurement,setting,value
"C/C(=C\C(=O)OCc1ccccc1C#N)CC1OCC(CC2OC2C(C)C(C)O)C(O)C1O (stereo not drawn) [Example 1, o-Cyanobenzyl monate A]",MIC,[1],1 µg/mL
same,MIC,[2],0.5 µg/mL
same,MIC,[3],2.5 µg/mL
same,MIC,[4],> 100 µg/mL
same,MIC,[5],> 100 µg/mL
same,MIC,[6],1 µg/mL
same,MIC,[7],0.5 µg/mL
same,MIC,[8],2.5 µg/mL
same,MIC,[9],1 µg/mL
same,MIC,[10],0.25 µg/mL
same,MIC,[11],0.5 µg/mL
same,MIC,[12],1 µg/mL
same,MIC,[13],≤ 0.01 µg/mL
same,MIC,[14],0.156 µg/mL
same,MIC,[15],2.5 µg/mL
same,MIC,[16],0.312 µg/mL
same,MIC,[17],0.156 µg/mL
same,MIC,[18],10 µg/mL
same,MIC,[19],1.25 µg/mL
same,MIC,[20],> 80 µg/mL
same,MIC,[21],1.25 µg/mL
same,MIC,[22],10 µg/mL
same,MIC,[23],80 µg/mL
same,MIC,[24],> 80 µg/mL
same,MIC,[25],1.25 µg/mL
same,MIC,[26],10 µg/mL
same,MIC,[27],> 80 µg/mL
same,MIC,[28],1.25 µg/mL
same,MIC,[29],> 80 µg/mL
same,MIC,[30],> 80 µg/mL
same,MIC,[31],> 80 µg/mL
same,MIC,[32],1 µg/mL
same,MIC,[33],0.5 µg/mL
same,MIC,[34],2.5 µg/mL
same,MIC,[35],0.5 µg/mL
same,MIC,[36],≤ 0.01 µg/mL
"C/C(=C\C(=O)OCc1cccc(C#N)c1)CC1OCC(CC2OC2C(C)C(C)O)C(O)C1O (stereo not drawn) [Example 2, m-Cyanobenzyl monate A]",MIC,[1],0.1 µg/mL
same,MIC,[2],0.025 µg/mL
same,MIC,[3],0.5 µg/mL
same,MIC,[4],> 100 µg/mL
same,MIC,[5],100 µg/mL
same,MIC,[6],0.05 µg/mL
same,MIC,[7],0.05 µg/mL
same,MIC,[8],0.5 µg/mL
same,MIC,[9],0.1 µg/mL
same,MIC,[10],0.025 µg/mL
same,MIC,[11],0.05 µg/mL
same,MIC,[12],0.1 µg/mL
same,MIC,[13],0.05 µg/mL
same,MIC,[14],0.312 µg/mL
same,MIC,[15],0.625 µg/mL
same,MIC,[16],0.312 µg/mL
same,MIC,[17],0.156 µg/mL
same,MIC,[18],2.5 µg/mL
same,MIC,[19],0.625 µg/mL
same,MIC,[20],> 80 µg/mL
same,MIC,[21],1.25 µg/mL
same,MIC,[22],2.5 µg/mL
same,MIC,[23],20 µg/mL
same,MIC,[24],80 µg/mL
same,MIC,[25],0.625 µg/mL
same,MIC,[26],10 µg/mL
same,MIC,[27],80 µg/mL
same,MIC,[28],0.625 µg/mL
same,MIC,[29],80 µg/mL
same,MIC,[30],80 µg/mL
same,MIC,[31],20 µg/mL
same,MIC,[32],0.05 µg/mL
same,MIC,[33],0.05 µg/mL
same,MIC,[34],2.5 µg/mL
same,MIC,[35],0.025 µg/mL
same,MIC,[36],≤ 0.01 µg/mL
"C/C(=C\C(=O)OCc1ccc(C#N)cc1)CC1OCC(CC2OC2C(C)C(C)O)C(O)C1O (stereo not drawn) [Example 3, p-Cyanobenzyl monate A]",MIC,[1],0.25 µg/mL
same,MIC,[2],0.1 µg/mL
same,MIC,[3],0.1 µg/mL
same,MIC,[4],> 100 µg/mL
same,MIC,[5],50 µg/mL
same,MIC,[6],0.25 µg/mL
same,MIC,[7],0.1 µg/mL
same,MIC,[8],0.25 µg/mL
same,MIC,[9],0.25 µg/mL
same,MIC,[10],0.05 µg/mL
same,MIC,[11],0.1 µg/mL
same,MIC,[12],0.25 µg/mL
same,MIC,[13],< 0.01 µg/mL
same,MIC,[14],0.07 µg/mL
same,MIC,[15],1.25 µg/mL
same,MIC,[16],0.156 µg/mL
same,MIC,[17],0.156 µg/mL
same,MIC,[18],2.5 µg/mL
same,MIC,[19],0.312 µg/mL
same,MIC,[20],> 80 µg/mL
same,MIC,[21],0.625 µg/mL
same,MIC,[22],2.5 µg/mL
same,MIC,[23],40 µg/mL
same,MIC,[24],80 µg/mL
same,MIC,[25],0.625 µg/mL
same,MIC,[26],10 µg/mL
same,MIC,[27],> 80 µg/mL
same,MIC,[28],0.312 µg/mL
same,MIC,[29],80 µg/mL
same,MIC,[30],80 µg/mL
same,MIC,[31],20 µg/mL
same,MIC,[32],0.1 µg/mL
same,MIC,[33],0.25 µg/mL
same,MIC,[34],0.25 µg/mL
same,MIC,[35],0.1 µg/mL
same,MIC,[36],≤ 0.01 µg/mL
